Reference: patent US9840510B1, “Pyrazolo[1,5-a]pyrimidinyl carboxamide compounds and their use in the treatment of medical disorders” (Lysosomal Therapeutics Inc., priority 2016, dated 2017)
≈ marks a conversion by molar mass, not a printed value.

experiment: Compound solubility in water; assay type: physicochemical

Structure (SMILES)	solubility [µg/mL]
Cc1cc(-c2ccc(F)cc2)nc2c(C(=O)NC(C)C(F)(F)F)cnn12 (stereo not shown) [III-164]	1.1 (≈ 3 µM)
Cc1cc(NC2CC2)nc2c(C(=O)NC(C)C(F)(F)F)cnn12 (stereo not shown) [III-165]	4 (≈ 12.2 µM)
Cc1cc(NC2CC2)nc2c(C(=O)N[C@@H](C)C3CC3)cnn12 [III-166]	10.9 (≈ 36.4 µM)
Cc1cc(-c2ccc3ocnc3c2)nc2c(C(=O)N[C@H](C)C(F)(F)F)cnn12 [III-167]	0.7 (≈ 1.8 µM)
Cc1cc(-c2ccc3ocnc3c2)nc2c(C(=O)N[C@@H](C)C(F)(F)F)cnn12 [III-168]	0.3 (≈ 0.771 µM)
Cc1cc(-c2ccc3ocnc3c2)nc2c(C(=O)NC(C)C(F)(F)F)cnn12 (stereo not shown) [III-169]	1.6 (≈ 4.11 µM)
Cc1cc(-n2ccc(Cl)n2)nc2c(C(=O)NC(C)C(F)(F)F)cnn12 (stereo not shown) [III-170]	0.5 (≈ 1.34 µM)
Cc1cc(-n2ccc(F)n2)nc2c(C(=O)NC(C3CC3)C(F)(F)F)cnn12 (stereo not shown) [III-172]	0.5 (≈ 1.31 µM)
Cc1cc(-n2ccc(F)n2)nc2c(C(=O)N[C@H](C3CC3)C(F)(F)F)cnn12 [III-173]	1.4 (≈ 3.66 µM)
Cc1cc(-c2cccc(-c3ncccn3)n2)nc2c(C(=O)NC(C3CC3)C(F)(F)F)cnn12 (stereo not shown) [III-175]	1 (≈ 2.21 µM)
Cc1cc(-c2cccc(-c3ncon3)c2)nc2c(C(=O)NC(C3CC3)C(F)(F)F)cnn12 (stereo not shown) [III-176]	0.2 (≈ 0.452 µM)
Cc1cc(-c2cccc(-c3ncncn3)c2)nc2c(C(=O)NC(C3CC3)C(F)(F)F)cnn12 (stereo not shown) [III-177]	0.2 (≈ 0.441 µM)
Cc1cc(-c2ccns2)nc2c(C(=O)NC(C)C(F)(F)F)cnn12 (stereo not shown) [III-178]	0.7 (≈ 1.97 µM)
Cc1cc(N2CCCC(F)(F)C2)nc2c(C(=O)NC(C)C(F)(F)F)cnn12 (stereo not shown) [III-179]	1.1 (≈ 2.81 µM)
Cc1cc(N2CCC(F)(F)C2)nc2c(C(=O)NC(C)C(F)(F)F)cnn12 (stereo not shown) [III-180]	4.8 (≈ 12.7 µM)
Cc1cc(N2CCC(F)(F)CC2)nc2c(C(=O)NC(C)C(F)(F)F)cnn12 (stereo not shown) [III-181]	4.5 (≈ 11.5 µM)
Cc1cc(-c2cccc3c2OCO3)nc2c(C(=O)N[C@@H](C)C3CC3)cnn12 [III-182]	0.2 (≈ 0.549 µM)
Cc1cc(-c2cccc3c2OCO3)nc2c(C(=O)NC(C3CC3)C(F)(F)F)cnn12 (stereo not shown) [III-183]	0.5 (≈ 1.2 µM)
Cc1cc(C)n2ncc(C(=O)NC(c3ccc(F)cc3)C(F)(F)F)c2n1 (stereo not shown) [III-184]	1.1 (≈ 3 µM)
Cc1cc(-c2ccc(C#N)o2)nc2c(C(=O)NC(C3CC3)C(F)(F)F)cnn12 (stereo not shown) [III-185]	6.3 (≈ 16.2 µM)
Cc1cc(-c2ccco2)nc2c(C(=O)NC(C3CC3)C(F)(F)F)cnn12 (stereo not shown) [III-186]	0.6 (≈ 1.65 µM)

Second part, the compound after the results:

solubility [µg/mL]	Structure (SMILES)
0.5 (≈ 1.37 µM)	Cc1cc(-c2ccoc2)nc2c(C(=O)NC(C3CC3)C(F)(F)F)cnn12 (stereo not shown) [III-187]
0.3 (≈ 0.74 µM)	Cc1cc(-c2cscc2C#N)nc2c(C(=O)NC(C3CC3)C(F)(F)F)cnn12 (stereo not shown) [III-188]
5.1 (≈ 12.6 µM)	Cc1cc(-c2sccc2C#N)nc2c(C(=O)NC(C3CC3)C(F)(F)F)cnn12 (stereo not shown) [III-189]
8.9 (≈ 25.8 µM)	Cc1cc(C)n2ncc(C(=O)N[C@H]3CC[C@H](OC(C)(C)C)CC3)c2n1 [III-190]
26.3 (≈ 76.4 µM)	Cc1cc(C)n2ncc(C(=O)N[C@H]3CC[C@H](OCC(C)C)CC3)c2n1 [III-191]
0.2 (≈ 0.53 µM)	Cc1cc(-c2ccc3scnc3c2)nc2c(C(=O)N[C@@H](C)C3CC3)cnn12 [III-192]
0.4 (≈ 1.01 µM)	COc1ccc(F)cc1-c1cc(C)n2ncc(C(=O)NC(C)C(F)(F)F)c2n1 (stereo not shown) [III-194]
0.01 (≈ 0.0252 µM)	COc1ccc(F)cc1-c1cc(C)n2ncc(C(=O)N[C@H](C)C(F)(F)F)c2n1 [III-195]
6.5 (≈ 19.9 µM)	Cc1cc(-c2ccns2)nc2c(C(=O)N[C@@H](C)C3CC3)cnn12 [III-197]
7.8 (≈ 21.2 µM)	Cc1cc(-c2cnccc2F)nc2c(C(=O)NC(C)C(F)(F)F)cnn12 (stereo not shown) [III-199]
1 (≈ 2.61 µM)	Cc1cc(-c2cncc(Cl)c2)nc2c(C(=O)NC(C)C(F)(F)F)cnn12 (stereo not shown) [III-200]
3.1 (≈ 8.08 µM)	Cc1cc(-c2cncc(Cl)c2)nc2c(C(=O)N[C@H](C)C(F)(F)F)cnn12 [III-201]
2.5 (≈ 6.51 µM)	Cc1cc(-c2cncc(Cl)c2)nc2c(C(=O)N[C@@H](C)C(F)(F)F)cnn12 [III-202]
0.07 (≈ 0.178 µM)	Cc1cc(-c2ncccc2F)nc2c(C(=O)NC(C3CC3)C(F)(F)F)cnn12 (stereo not shown) [III-203]
0.1 (≈ 0.254 µM)	Cc1cc(-c2ccc(F)cn2)nc2c(C(=O)NC(C3CC3)C(F)(F)F)cnn12 (stereo not shown) [III-204]
0.1 (≈ 0.254 µM)	Cc1cc(-c2cc(F)ccn2)nc2c(C(=O)NC(C3CC3)C(F)(F)F)cnn12 (stereo not shown) [III-205]
2.1 (≈ 5.12 µM)	Cc1cc(-c2ncccc2Cl)nc2c(C(=O)NC(C3CC3)C(F)(F)F)cnn12 (stereo not shown) [III-206]
0.6 (≈ 1.46 µM)	Cc1cc(-c2cc(Cl)ccn2)nc2c(C(=O)NC(C3CC3)C(F)(F)F)cnn12 (stereo not shown) [III-207]
0.04 (≈ 0.0976 µM)	Cc1cc(-c2ccc(Cl)cn2)nc2c(C(=O)NC(C3CC3)C(F)(F)F)cnn12 (stereo not shown) [III-208]
1.2 (≈ 3.15 µM)	Cc1cc(-c2nccs2)nc2c(C(=O)NC(C3CC3)C(F)(F)F)cnn12 (stereo not shown) [III-209]
2.4 (≈ 6.59 µM)	Cc1cc(-c2ccc3c(c2)OCO3)nc2c(C(=O)N[C@@H](C)C3CC3)cnn12 [III-210]
0.2 (≈ 0.501 µM)	Cc1cc(-c2ccccc2C#N)nc2c(C(=O)NC(C3CC3)C(F)(F)F)cnn12 (stereo not shown) [III-211]
